According to PubChem BioAssay AID1963984 (Molecular Pharmacology Branch, DTP, NCI, 2024):

System: 233499-124-R-J3-PDC spheroids with HUVEC/MSC, viability
Assay: Anticancer human tumor 233499-124-R-J3-PDC patient-derived colon adenocarcinoma cell line growth inhibition [PI3K]
Settings: for IC50: curve of first compound; for viability, T/C: stronger effect = lower value; active means viability on the fitted dose curve at most 10% of control; inactive means the rest
Method in brief: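 Spheroid viability read-out. Co-cultures contained the tumor line plus HUVEC and human MSCs. Each agent was paired with a PI3K inhibitor (inavolisib, alpelisib, duvelisib, copanlisib) across half-log dilutions starting at clinical Cmax, or at 10 microM when Cmax was unknown.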

[1] = second compound 0.0316 µM, first compound 0.000316 µM
[2] = second compound 0.0316 µM, first compound 0.001 µM
[3] = second compound 0.0316 µM, first compound 0.00316 µM
[4] = second compound 0.0316 µM, first compound 0.01 µM
[5] = second compound 0.0316 µM, first compound 0.0316 µM
[6] = second compound 0.0316 µM, first compound 0.1 µM
[7] = second compound 0.1 µM, first compound 0.000316 µM
[8] = second compound 0.1 µM, first compound 0.001 µM
[9] = second compound 0.1 µM, first compound 0.00316 µM
[10] = second compound 0.1 µM, first compound 0.01 µM
[11] = second compound 0.1 µM, first compound 0.0316 µM
[12] = second compound 0.1 µM, first compound 0.1 µM
[13] = second compound 0.316 µM, first compound 0.000316 µM
[14] = second compound 0.316 µM, first compound 0.001 µM
[15] = second compound 0.316 µM, first compound 0.00316 µM
[16] = second compound 0.316 µM, first compound 0.01 µM
[17] = second compound 0.316 µM, first compound 0.0316 µM
[18] = second compound 0.316 µM, first compound 0.1 µM
[19] = second compound 1 µM, first compound 0.000316 µM
[20] = second compound 1 µM, first compound 0.001 µM
[21] = second compound 1 µM, first compound 0.00316 µM
[22] = second compound 1 µM, first compound 0.01 µM
[23] = second compound 1 µM, first compound 0.0316 µM
[24] = second compound 1 µM, first compound 0.1 µM
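Further: spheroids exposed to agents for seven days before readout.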
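Wherever viability, T/C is given: percent viability relative to DMSO vehicle control taken as 100%.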

CC(C)n1nc(-c2ccc3oc(N)nc3c2)c2c(N)ncnc21 + Cc1nc(NC(=O)N2CCCC2C(N)=O)sc1-c1ccnc(C(C)(C)C(F)(F)F)c1
37.5 nM: IC50 (second compound 1 µM)
> 100 nM: IC50 (second compound 0.0316 µM) | IC50 (second compound 0.316 µM)
< 0.316 nM: IC50 (second compound 10 µM)
85.9 nM: IC50 (second compound 0.1 µM)
inactive: viability, T/C [1] 103% | viability, T/C [2] 90.9% | viability, T/C [3] 103% | viability, T/C [4] 64.7% | viability, T/C [5] 92.6% | viability, T/C [6] 55.2% | viability, T/C [7] 99.4% | viability, T/C [8] 92.4% | viability, T/C [9] 54.8% | viability, T/C [10] 86% | viability, T/C [11] 84% | viability, T/C [12] 45.1% | viability, T/C [13] 89.9% | viability, T/C [14] 81% | viability, T/C [15] 90.1% | viability, T/C [16] 79.1% | viability, T/C [17] 67.7% | viability, T/C [18] 53.9% | viability, T/C [19] 68% | viability, T/C [20] 71.8% | viability, T/C [21] 82.1% | viability, T/C [22] 62.4% | viability, T/C [23] 55.3% | viability, T/C [24] 25.2% | viability, T/C (second compound 3.16 µM, first compound 0.000316 µM) 61.2% | viability, T/C (second compound 3.16 µM, first compound 0.001 µM) 50.6% | viability, T/C (second compound 3.16 µM, first compound 0.00316 µM) 73% | viability, T/C (second compound 3.16 µM, first compound 0.01 µM) 39.7% | viability, T/C (second compound 3.16 µM, first compound 0.0316 µM) 43.7% | viability, T/C (second compound 3.16 µM, first compound 0.1 µM) 30.7% | viability, T/C (second compound 10 µM, first compound 0.000316 µM) 43.7% | viability, T/C (second compound 10 µM, first compound 0.001 µM) 26.4% | viability, T/C (second compound 10 µM, first compound 0.00316 µM) 29.7% | viability, T/C (second compound 10 µM, first compound 0.01 µM) 26.3% | viability, T/C (second compound 10 µM, first compound 0.0316 µM) 24.5% | viability, T/C (second compound 10 µM, first compound 0.1 µM) 6.69%
5.81 nM: IC50 (second compound 3.16 µM)

CC(=O)c1c(C)c2cnc(Nc3ccc(N4CCNCC4)cn3)nc2n(C2CCCC2)c1=O + CC(Nc1ccc2c(c1)OCCn1cc(N3C(=O)OCC3C(F)F)nc1-2)C(N)=O
inactive: viability, T/C (second compound 0.00316 µM, first compound 0.000316 µM) 97.3% | viability, T/C (second compound 0.00316 µM, first compound 0.001 µM) 83.4% | viability, T/C (second compound 0.00316 µM, first compound 0.00316 µM) 95.7% | viability, T/C (second compound 0.00316 µM, first compound 0.01 µM) 73.7% | viability, T/C (second compound 0.00316 µM, first compound 0.0316 µM) 87.8% | viability, T/C (second compound 0.00316 µM, first compound 0.1 µM) 74.2% | viability, T/C (second compound 0.01 µM, first compound 0.000316 µM) 86.4% | viability, T/C (second compound 0.01 µM, first compound 0.001 µM) 87.5% | viability, T/C (second compound 0.01 µM, first compound 0.00316 µM) 80.9% | viability, T/C (second compound 0.01 µM, first compound 0.01 µM) 89.7% | viability, T/C (second compound 0.01 µM, first compound 0.0316 µM) 86% | viability, T/C (second compound 0.01 µM, first compound 0.1 µM) 70.6% | viability, T/C [1] 88.8% | viability, T/C [2] 88.4% | viability, T/C [3] 76.7% | viability, T/C [4] 89% | viability, T/C [5] 93.2% | viability, T/C [6] 71.2% | viability, T/C [7] 82.6% | viability, T/C [8] 84.4% | viability, T/C [9] 81.2% | viability, T/C [10] 101% | viability, T/C [11] 90.2% | viability, T/C [12] 65.2% | viability, T/C [13] 83% | viability, T/C [14] 79.5% | viability, T/C [15] 76.9% | viability, T/C [16] 67.2% | viability, T/C [17] 79.3% | viability, T/C [18] 59.6% | viability, T/C [19] 76.7% | viability, T/C [20] 68.7% | viability, T/C [21] 50% | viability, T/C [22] 55.3% | viability, T/C [23] 60.1% | viability, T/C [24] 48.9%
> 100 nM: IC50 (second compound 0.00316 µM) | IC50 (second compound 0.01 µM) | IC50 (second compound 0.0316 µM) | IC50 (second compound 0.1 µM) | IC50 (second compound 0.316 µM) | IC50 (second compound 1 µM)
